Experimental data taken from paper PMC6768323, “Adverse Maternal, Fetal, and Postnatal Effects of Hexafluoropropylene Oxide Dimer Acid (GenX) from Oral Gestational Exposure in Sprague-Dawley Rats” (Environmental Health Perspectives, 2019).

System: F1 Sprague-Dawley rats
Assay: Pilot postnatal study, GD14-18 oral maternal dosing
Assay type: in vivo
Experimental: A single-dose level pilot study utilizing time-mated SD rats was conducted to examine the potential postnatal effects of in utero exposure to HFPO-DA from a similar dosing interval to the fetal studies (Figure 1B). The study consisted of dams exposed to oral daily dosing with either water vehicle or 125mg/kg HFPO-DA ( n=3 for each) from GD14–18. […] Dams gave birth naturally beginning on the morning of GD22 [i.e., postnatal day (PND) 0]. On PND2 all pups were sexed, weighed, and anogenital distance (AGD) was measured using a Leica MZ6 stereomicroscope (Leica Microsystems) fitted with an ocular micrometer. On PND13, the offspring were sexed, weighed, and evaluated for retention of female-like nipples/areolae. On PND27, the dams were euthanized, uterine implantation sites were scored, pups were weaned to two animals per cage by sex and treatment group, and food was changed to NTP2000 rodent diet. Beginning on PND31 for female offspring and PND41 for male offspring, individuals were evaluated daily for markers of pubertal onset, vaginal opening (VO) for females and balano-preputial separation (BPS) for males.
Beginning at PND128, adult F1 females were weighed, euthanized via decapitation, and examined via necropsy for any reproductive tract malformations and tissue weights were collected for uterus, paired ovaries, liver, paired kidneys, and visceral adipose tissue. Similarly, beginning at PND146 adult F1 males were weighed, euthanized, and examined for reproductive tract malformations and weights were collected for all relevant reproductive tissues. Male necropsy included weights of glans penis, ventral prostate, paired seminal vesicles, paired testes, paired epididymides, levator ani–bulbocavernosus (LABC), paired bulbourethral (Cowper’s) glands, paired kidneys, visceral adipose tissue, and epididymal adipose tissue. […] Total sperm counts in epididymal sections were measured using a Multisizer 3 Coulter counter (Beckman Coulter).

[1] = adult F1 female, 125 mg/kg/d, individual means
[2] = adult F1 female, 125 mg/kg/d, litter means
[3] = adult F1 male, 125 mg/kg/d, individual means
[4] = adult F1 male, 125 mg/kg/d, litter means

SMILES: O=C(O)C(F)(OC(F)(F)C(F)(F)C(F)(F)F)C(F)(F)F (stereo not shown) [HFPO-DA, Hexafluoropropylene oxide dimer acid]
- viable pups per litter versus control dams (125 mg/kg): equal numbers of viable pups
- pup survival (125 mg/kg GD14-18): no effect on pup survival
- Female AGD on PND2 (125 mg/kg/d, individual means): 1.5 ± 0.0 mm
- Female BW at VO (125 mg/kg/d, individual means): 123.4 ± 2.3 g
- Female BW on PND27 (125 mg/kg/d, individual means): 79.1 ± 1.4 g
- Female NR on PND13 (125 mg/kg/d, individual means): 12.0 ± 0.0
- Female pup BW on PND2 (125 mg/kg/d, individual means): 7.5 ± 0.1 g
- Female pup BW on PND13 (125 mg/kg/d, individual means): 28.7 ± 0.3 g
- Male AGD on PND2 (125 mg/kg/d, individual means): 3.7 ± 0.1 mm
- Male BW at PPS (125 mg/kg/d, individual means): 211.4 ± 3.7 g
- Male BW on PND27 (125 mg/kg/d, individual means): 81.1 ± 1.6 g
- Male NR on PND2 (125 mg/kg/d, individual means): 0.1 ± 0.1
- Male pup BW on PND2 (125 mg/kg/d, individual means): 7.8 ± 0.1 g
- Male pup BW on PND13 (125 mg/kg/d, individual means): 29.3 ± 0.3 g
- Dam BW GD14 (125 mg/kg/d, litter means): 325.5 ± 5.2 g
- Dam BW GD18 (125 mg/kg/d, litter means): 354.9 ± 9.0 g
- Dam BW gain (125 mg/kg/d, litter means): 29.4 ± 6.0 g
- Female AGD on PND2 (125 mg/kg/d, litter means): 1.5 ± 0.1 mm
- Female BW at VO (125 mg/kg/d, litter means): 124.3 ± 4.2 g
- Female BW on PND27 (125 mg/kg/d, litter means): 78.2 ± 3.5 g
- Female NR on PND13 (125 mg/kg/d, litter means): 12.0 ± 0.0
- Female pup BW on PND2 (125 mg/kg/d, litter means): 7.5 ± 0.1 g
- Female pup BW on PND13 (125 mg/kg/d, litter means): 28.7 ± 0.1 g
- Male AGD on PND2 (125 mg/kg/d, litter means): 3.7 ± 0.1 mm
- Male BW at PPS (125 mg/kg/d, litter means): 214.6 ± 8.0 g
- Male BW on PND27 (125 mg/kg/d, litter means): 83.3 ± 4.7 g
- Male NR on PND2 (125 mg/kg/d, litter means): 0.1 ± 0.1
- Male pup BW on PND2 (125 mg/kg/d, litter means): 7.8 ± 0.1 g
- Male pup BW on PND13 (125 mg/kg/d, litter means): 29.5 ± 0.5 g
- No. implants (125 mg/kg/d, litter means): 13.0 ± 1.0
- No. pups on PND2 (125 mg/kg/d, litter means): 12.7 ± 0.7
- Post-implantation loss on PND2 (125 mg/kg/d, litter means): 2.2 ± 2.2%
- adult female AGD and liver weight (125 mg/kg, individual basis): significantly smaller AGD and lower liver weight
- weights of right, left, paired testes, right, left, paired epididymides, epididymal adipose tissue (125 mg/kg, individual basis): significantly lower tissue weights
- female offspring body weight (PND2, PND27, at VO) (125 mg/kg, individual pup basis): significantly lower than controls
- adult female necropsy end points (125 mg/kg, litter means basis): no significant differences
- end points measured through the onset of puberty (125 mg/kg, litter means basis): no significant differences
- right epididymis tissue weight, adult males (125 mg/kg, litter means basis): significantly lower
- AGD [1]: 16.7 ± 0.7 mm
- Body weight [1]: 370.3 ± 12.3 g
- Liver [1]: 11.3 ± 0.3 g
- Paired kidneys [1]: 2.1 ± 0.1 g
- Paired ovaries [1]: 123.2 ± 3.6 mg
- Uterus [1]: 635.6 ± 48.9 mg
- Visceral adipose tissue [1]: 25.2 ± 2.4 g
- AGD [2]: 16.8 ± 0.5 mm
- Body weight [2]: 374.0 ± 25.0 g
- Liver [2]: 11.4 ± 0.5 g
- Paired kidneys [2]: 2.1 ± 0.1 g
- Paired ovaries [2]: 122.5 ± 8.6 mg
- Uterus [2]: 635.4 ± 74.3 mg
- Visceral adipose tissue [2]: 25.1 ± 4.6 g
- Body weight [3]: 676.5 ± 10.6 g
- Cauda sperm [3]: 159.7 ± 4.7 106
- Corpus/caput sperm [3]: 72.6 ± 2.3 106
- Epididymal adipose tissue [3]: 7.8 ± 0.5 g
- Glans penis [3]: 134.5 ± 3.0 mg
- LABC [3]: 1.6 ± 0.0 g
- Left epididymis [3]: 668.1 ± 10.4 mg
- Left testis [3]: 1.9 ± 0.0 g
- Liver [3]: 20.1 ± 0.4 g
- Paired Cowper’s glands [3]: 163.4 ± 5.2 mg
- Paired epididymides [3]: 1331.2 ± 21.2 mg
- Paired kidneys [3]: 3.4 ± 0.1 g
- Paired seminal vesicles [3]: 1.8 ± 0.1 g
- Paired testes [3]: 3.8 ± 0.1 g
- Right cauda [3]: 310.5 ± 6.2 mg
- Right corpus/caput [3]: 352.6 ± 7.1 mg
- Right epididymis [3]: 663.1 ± 11.2 mg
- Right testis [3]: 1.9 ± 0.0 g
- Total epididymal sperm [3]: 185.8 ± 4.7 106
- Ventral prostate [3]: 682.1 ± 32.7 mg
- Visceral adipose tissue [3]: 25.8 ± 1.5 g
- Body weight [4]: 682.6 ± 13.4 g
- Cauda sperm [4]: 160.0 ± 3.4 106
- Corpus/caput sperm [4]: 72.0 ± 2.8 106
- Epididymal adipose tissue [4]: 8.2 ± 1.0 g
- Glans penis [4]: 135.0 ± 1.5 mg
- LABC [4]: 1.5 ± 0.1 g
- Left epididymis [4]: 664.2 ± 12.5 mg
- Left testis [4]: 1.9 ± 0.0 g
- Liver [4]: 20.2 ± 0.4 g
- Paired Cowper’s glands [4]: 165.6 ± 9.7 mg
- Paired epididymides [4]: 1323.7 ± 24.3 mg
- Paired kidneys [4]: 3.4 ± 0.0 g
- Paired seminal vesicles [4]: 1.8 ± 0.1 g
- Paired testes [4]: 3.8 ± 0.1 g
- Right cauda [4]: 309.0 ± 6.0 mg
- Right corpus/caput [4]: 350.5 ± 5.9 mg
- Right epididymis [4]: 659.5 ± 11.8 mg
- Right testis [4]: 1.9 ± 0.0 g
- Total epididymal sperm [4]: 185.6 ± 2.0 106
- Ventral prostate [4]: 678.7 ± 30.1 mg
- Visceral adipose tissue [4]: 26.8 ± 2.4 g
